Source: PubChem BioAssay AID1918952 (Molecular Pharmacology Branch, DTP, NCI, 2023)

Test system: LG0703-F948-PDC complex spheroid viability
Test: Anticancer human tumor LG0703-F948-PDC patient-derived lung adenocarcinoma cell line growth inhibition
Conditions: for IC50: curve of first compound; for viability, T/C: stronger effect = lower value
Summary of the method: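 Drug combinations with the LSD1 inhibitor iadademstat tested on tumor cells co-cultured as spheroids with endothelial cells and mesenchymal stem cells. Concentrations descended in half-log increments from clinical Cmax or 10 microM.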

[1] = second compound 0.1 µM, first compound 0.0316 µM
[2] = second compound 0.1 µM, first compound 0.1 µM
[3] = second compound 0.316 µM, first compound 0.0316 µM
[4] = second compound 0.316 µM, first compound 0.1 µM
[5] = second compound 1 µM, first compound 0.0316 µM
[6] = second compound 1 µM, first compound 0.1 µM
[7] = second compound 3.16 µM, first compound 0.0316 µM
[8] = second compound 3.16 µM, first compound 0.1 µM
[9] = second compound 10 µM, first compound 0.0316 µM
[10] = second compound 10 µM, first compound 0.1 µM
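Also: spheroids exposed to agents for seven days before readout.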
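For viability, T/C in this document: 100% = DMSO vehicle control wells as normalization base.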

For `CC1(C)CCC(CN2CCN(c3ccc(C(=O)NS(=O)(=O)c4ccc(NCC5CCOCC5)c([N+](=O)[O-])c4)c(Oc4cnc5[nH]ccc5c4)c3)CC2)=C(c2ccc(Cl)cc2)C1` + NC1CCC(NC2CC2c2ccccc2)CC1, the IC50 (second compound 0.1 µM) was 2380 nM, the IC50 (second compound 0.316 µM) was 2180 nM and the IC50 (second compound 1 µM) was 2550 nM. It also gave an IC50 (second compound 3.16 µM) of 2630 nM, an IC50 (second compound 10 µM) of 2360 nM and a viability, T/C [1] of 107%. It also gave a viability, T/C [2] of 90.9%, a viability, T/C (second compound 0.1 µM, first compound 0.316 µM) of 85.2% and a viability, T/C (second compound 0.1 µM, first compound 1 µM) of 99.4%. For the same molecule, the viability, T/C (second compound 0.1 µM, first compound 3.16 µM) was 34.9%, the viability, T/C (second compound 0.1 µM, first compound 10 µM) was 2.77% and the viability, T/C [3] was 97.3%. It also gave a viability, T/C [4] of 99.2%, a viability, T/C (second compound 0.316 µM, first compound 0.316 µM) of 102% and a viability, T/C (second compound 0.316 µM, first compound 1 µM) of 112%. For the same molecule, the viability, T/C (second compound 0.316 µM, first compound 3.16 µM) was 24.9%, the viability, T/C (second compound 0.316 µM, first compound 10 µM) was 2.76% and the viability, T/C [5] was 100%. For the same molecule, the viability, T/C [6] was 119%, the viability, T/C (second compound 1 µM, first compound 0.316 µM) was 117% and the viability, T/C (second compound 1 µM, first compound 1 µM) was 103%. The viability, T/C (second compound 1 µM, first compound 3.16 µM) was 37.8%, the viability, T/C (second compound 1 µM, first compound 10 µM) was 2.92% and the viability, T/C [7] was 126%. For the same molecule, the viability, T/C [8] was 119%, the viability, T/C (second compound 3.16 µM, first compound 0.316 µM) was 135% and the viability, T/C (second compound 3.16 µM, first compound 1 µM) was 118%. It also gave a viability, T/C (second compound 3.16 µM, first compound 3.16 µM) of 36.9%, a viability, T/C (second compound 3.16 µM, first compound 10 µM) of 2.37% and a viability, T/C [9] of 112%. The viability, T/C [10] was 114%, the viability, T/C (second compound 10 µM, first compound 0.316 µM) was 104% and the viability, T/C (second compound 10 µM, first compound 1 µM) was 99.1%. For the same molecule, the viability, T/C (second compound 10 µM, first compound 3.16 µM) was 33.4% and the viability, T/C (second compound 10 µM, first compound 10 µM) was 2.95%.
For `Cn1ncnc1C1c2n[nH]c(=O)c3cc(F)cc(c23)NC1c1ccc(F)cc1` (stereo not given) + NC1CCC(NC2CC2c2ccccc2)CC1, the IC50 (second compound 0.1 µM) was > 100 nM, the IC50 (second compound 0.316 µM) was > 100 nM and the IC50 (second compound 1 µM) was > 100 nM. The IC50 (second compound 3.16 µM) was > 100 nM, the IC50 (second compound 10 µM) was > 100 nM and the viability, T/C (second compound 0.1 µM, first compound 0.000316 µM) was 102%. For the same molecule, the viability, T/C (second compound 0.1 µM, first compound 0.001 µM) was 96.2%, the viability, T/C (second compound 0.1 µM, first compound 0.00316 µM) was 93.1% and the viability, T/C (second compound 0.1 µM, first compound 0.01 µM) was 104%. For the same molecule, the viability, T/C [1] was 88.4%, the viability, T/C [2] was 97.8% and the viability, T/C (second compound 0.316 µM, first compound 0.000316 µM) was 111%. It also gave a viability, T/C (second compound 0.316 µM, first compound 0.001 µM) of 108%, a viability, T/C (second compound 0.316 µM, first compound 0.00316 µM) of 95.8% and a viability, T/C (second compound 0.316 µM, first compound 0.01 µM) of 113%. It also gave a viability, T/C [3] of 93.1%, a viability, T/C [4] of 96.9% and a viability, T/C (second compound 1 µM, first compound 0.000316 µM) of 113%. For the same molecule, the viability, T/C (second compound 1 µM, first compound 0.001 µM) was 128%, the viability, T/C (second compound 1 µM, first compound 0.00316 µM) was 116% and the viability, T/C (second compound 1 µM, first compound 0.01 µM) was 111%. The viability, T/C [5] was 115%, the viability, T/C [6] was 97.7% and the viability, T/C (second compound 3.16 µM, first compound 0.000316 µM) was 122%. For the same molecule, the viability, T/C (second compound 3.16 µM, first compound 0.001 µM) was 133%, the viability, T/C (second compound 3.16 µM, first compound 0.00316 µM) was 115% and the viability, T/C (second compound 3.16 µM, first compound 0.01 µM) was 123%. For the same molecule, the viability, T/C [7] was 117%, the viability, T/C [8] was 122% and the viability, T/C (second compound 10 µM, first compound 0.000316 µM) was 108%. It also gave a viability, T/C (second compound 10 µM, first compound 0.001 µM) of 123%, a viability, T/C (second compound 10 µM, first compound 0.00316 µM) of 115% and a viability, T/C (second compound 10 µM, first compound 0.01 µM) of 117%. For the same molecule, the viability, T/C [9] was 111% and the viability, T/C [10] was 121%.
In the case of `NS(=O)(=O)OCC1CC(n2ccc3c(NC4CCc5ccccc54)ncnc32)CC1O` (stereo not given) + NC1CCC(NC2CC2c2ccccc2)CC1, the IC50 (second compound 0.1 µM) is reported as 546 nM, the IC50 (second compound 0.316 µM) is reported as 607 nM and the IC50 (second compound 1 µM) is reported as 670 nM. For the same molecule, the IC50 (second compound 3.16 µM) was 633 nM, the IC50 (second compound 10 µM) was 467 nM and the viability, T/C (second compound 0.1 µM, first compound 0.00949 µM) was 106%. It also gave a viability, T/C (second compound 0.1 µM, first compound 0.03 µM) of 111%, a viability, T/C (second compound 0.1 µM, first compound 0.0949 µM) of 106% and a viability, T/C (second compound 0.1 µM, first compound 0.3 µM) of 70.7%. It also gave a viability, T/C (second compound 0.1 µM, first compound 0.949 µM) of 31.4%, a viability, T/C (second compound 0.1 µM, first compound 3 µM) of 19.1% and a viability, T/C (second compound 0.316 µM, first compound 0.00949 µM) of 111%. For the same molecule, the viability, T/C (second compound 0.316 µM, first compound 0.03 µM) was 123%, the viability, T/C (second compound 0.316 µM, first compound 0.0949 µM) was 109% and the viability, T/C (second compound 0.316 µM, first compound 0.3 µM) was 80.5%. For the same molecule, the viability, T/C (second compound 0.316 µM, first compound 0.949 µM) was 30.7%, the viability, T/C (second compound 0.316 µM, first compound 3 µM) was 17.1% and the viability, T/C (second compound 1 µM, first compound 0.00949 µM) was 113%. For the same molecule, the viability, T/C (second compound 1 µM, first compound 0.03 µM) was 144%, the viability, T/C (second compound 1 µM, first compound 0.0949 µM) was 105% and the viability, T/C (second compound 1 µM, first compound 0.3 µM) was 83.3%. The viability, T/C (second compound 1 µM, first compound 0.949 µM) was 35.9%, the viability, T/C (second compound 1 µM, first compound 3 µM) was 16.2% and the viability, T/C (second compound 3.16 µM, first compound 0.00949 µM) was 124%. It also gave a viability, T/C (second compound 3.16 µM, first compound 0.03 µM) of 141%, a viability, T/C (second compound 3.16 µM, first compound 0.0949 µM) of 112% and a viability, T/C (second compound 3.16 µM, first compound 0.3 µM) of 82.5%. The viability, T/C (second compound 3.16 µM, first compound 0.949 µM) was 32.4%, the viability, T/C (second compound 3.16 µM, first compound 3 µM) was 13.6% and the viability, T/C (second compound 10 µM, first compound 0.00949 µM) was 124%. For the same molecule, the viability, T/C (second compound 10 µM, first compound 0.03 µM) was 124%, the viability, T/C (second compound 10 µM, first compound 0.0949 µM) was 124% and the viability, T/C (second compound 10 µM, first compound 0.3 µM) was 69.3%. The viability, T/C (second compound 10 µM, first compound 0.949 µM) was 20.4% and the viability, T/C (second compound 10 µM, first compound 3 µM) was 8.21%.
